Experimental data published in patent US20230085307A1, “PYRIDAZINONE COMPOUND AND HERBICIDE” (NISSAN CHEMICAL CORPORATION, priority 2019, published 2023).

Key:
barnyard grass [1] = assay: Test Example 3: herbicidal effect by foliage application, Wagner pot (Table 18, symbol H); type: in vivo, barnyard grass (Echinochloa crus-galli); settings: amount of applied herbicide 320 g/ha
Procedure, shortened: (§1)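 Plants were sown in alluvial soil held under 0.1–0.5 cm standing water and grown 14 days in a greenhouse at 25–30 °C. An emulsifiable formulation, water-diluted to the set dose, was then sprayed onto the foliage, and effects were scored three weeks later using previously defined criteria.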

barnyard grass [2] = assay: Test Example 5: herbicidal effect by foliage application, plastic box (Table 20, symbol H); type: in vivo, barnyard grass (Echinochloa crus-galli); settings: foliage application, 320 g/ha, evaluated three weeks after application
Procedure, shortened: (§2)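 Plants were sown into sterilized diluvial soil under about 1.5 cm cover and kept in a greenhouse at 25° C. to 30° C. Fourteen days on, foliage received an even spray of the diluted emulsion. Herbicidal or crop effect was judged three weeks afterwards.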

blackgrass = assay: Test Example 5: herbicidal effect by foliage application, plastic box (Table 20, symbol J); type: in vivo, blackgrass (Alopecurus myosuroides); settings: foliage application, 320 g/ha, evaluated three weeks after application
Procedure, shortened: as §2

redroot pigweed = assay: Test Example 5: herbicidal effect by foliage application, plastic box (Table 20, symbol N); type: in vivo, redroot pigweed (Amaranthus retroflexus); settings: foliage application, 320 g/ha, evaluated three weeks after application
Procedure, shortened: as §2

southern crabgrass = assay: Test Example 4: herbicidal effect by soil treatment (Table 19, symbol F); type: in vivo, southern crabgrass (Digitaria ciliaris); settings: amount of applied herbicide 320 g/ha
Procedure, shortened: (§3)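 In this soil treatment, the formulated compound reached the seeds only through the soil: seeds were buried about 1.5 cm deep in sterilized diluvial soil, then the diluted emulsion was sprayed over the surface. After three weeks at 25° C. to 30° C. in a greenhouse, effects were graded on criteria from an earlier test.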

Chinese sprangletop = assay: Test Example 3: herbicidal effect by foliage application, Wagner pot (Table 18, symbol D); type: in vivo, chinese sprangletop (Leptochloa chinensis); settings: amount of applied herbicide 320 g/ha
Procedure, shortened: as §1

persian speedwell = assay: Test Example 4: herbicidal effect by soil treatment (Table 19, symbol R); type: in vivo, Persian speedwell (Veronica persica); settings: amount of applied herbicide 320 g/ha
Procedure, shortened: as §3

barnyard grass [3] = assay: Test Example 4: herbicidal effect by soil treatment (Table 19, symbol H); type: in vivo, barnyard grass (Echinochloa crus-galli); settings: amount of applied herbicide 320 g/ha
Procedure, shortened: as §3

Japanese bulrush [4] = assay: Test Example 2: herbicidal activity, application during weed generation under submerged conditions (Table 17, symbol B); type: in vivo, Japanese bulrush (Schoenoplectus juncoides); settings: AAH 320 g/ha; application during weed generation, submerged conditions
Procedure, shortened: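 Alluvial soil in Wagner pots was flooded to 4 cm depth and sown with the three weeds together; pots were kept in a greenhouse at 25° C. to 30° C. At the one to two leaf stage, an emulsion formulation diluted in water to a set rate went onto the water surface; scored three weeks later.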

lambsquarters [5] = assay: Test Example 5: herbicidal effect by foliage application, plastic box (Table 20, symbol O); type: in vivo, lambsquarters (Chenopodium album); settings: foliage application, 320 g/ha, evaluated three weeks after application
Procedure, shortened: as §2

Japanese bulrush [6] = assay: Test Example 1: herbicidal activity, application before weed generation under submerged conditions (Table 16, symbol B); type: in vivo, Japanese bulrush (Schoenoplectus juncoides); settings: 320 g/ha applied herbicide
Procedure, shortened: (§4)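 Submerged Wagner pots (alluvial soil, 4 cm water) sown with weed seeds and planted with 2.5-leaf rice seedlings; emulsifiable concentrate diluted in water applied to water surface on sowing day. Held in greenhouse at 25-30 °C; injury scored 0-5 by herbicidal rate after three weeks.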

windgrass [7] = assay: Test Example 4: herbicidal effect by soil treatment (Table 19, symbol L); type: in vivo, windgrass (Apera spica-venti); settings: amount of applied herbicide 320 g/ha
Procedure, shortened: as §3

windgrass [8] = assay: Test Example 5: herbicidal effect by foliage application, plastic box (Table 20, symbol L); type: in vivo, windgrass (Apera spica-venti); settings: foliage application, 320 g/ha, evaluated three weeks after application
Procedure, shortened: as §2

chickweed = assay: Test Example 5: herbicidal effect by foliage application, plastic box (Table 20, symbol P); type: in vivo, common chickweed (Stellaria media); settings: foliage application, 320 g/ha, evaluated three weeks after application
Procedure, shortened: as §2

late watergrass = assay: Test Example 1: herbicidal activity, application before weed generation under submerged conditions (Table 16, symbol A); type: in vivo, late watergrass (Echinochloa oryzicola); settings: 320 g/ha applied herbicide
Procedure, shortened: as §4

lambsquarters [9] = assay: Test Example 4: herbicidal effect by soil treatment (Table 19, symbol O); type: in vivo, lambsquarters (Chenopodium album); settings: amount of applied herbicide 320 g/ha
Procedure, shortened: as §3

Cc1nn(C)c(=O)c(-c2c(-c3ccccc3)sc3ccc(F)cc23)c1O [2-197]
herbicidal effect on H: barnyard grass (barnyard grass [1]): 5 (Herbicidal rate of 90% or more (almost completely withered)) | herbicidal effect on H: barnyard grass (criteria 0-5) (barnyard grass [2]): 5 (Herbicidal rate of 90% or more (almost completely withered)) | herbicidal effect on J: blackgrass (criteria 0-5) (blackgrass): 4 (Herbicidal rate of 70% or more and less than 90%) | herbicidal effect on N: redroot pigweed (criteria 0-5) (redroot pigweed): 5 (Herbicidal rate of 90% or more (almost completely withered)) | F: southern crabgrass, herbicidal effect rating (southern crabgrass): 4 (Herbicidal rate of 70% or more and less than 90%) | herbicidal effect on D: Chinese sprangletop (Chinese sprangletop): 5 (Herbicidal rate of 90% or more (almost completely withered)) | R: persian speedwell, herbicidal effect rating (persian speedwell): 3 (Herbicidal rate of 40% or more and less than 70%) | H: barnyard grass, herbicidal effect rating (barnyard grass [3]): 5 (Herbicidal rate of 90% or more (almost completely withered)) | herbicidal effect rating, B: Japanese bulrush (Japanese bulrush [4]): 3 (Herbicidal rate of 40% or more and less than 70%) | herbicidal effect on O: lambsquarters (criteria 0-5) (lambsquarters [5]): 5 (Herbicidal rate of 90% or more (almost completely withered)) | Herbicidal effect on B: Japanese bulrush (grade 0-5) (Japanese bulrush [6]): 3 (Herbicidal rate of 40% or more and less than 70%) | L: windgrass, herbicidal effect rating (windgrass [7]): 1 (Herbicidal rate of 5% or more and less than 20%) | herbicidal effect on L: windgrass (criteria 0-5) (windgrass [8]): 4 (Herbicidal rate of 70% or more and less than 90%) | herbicidal effect on P: chickweed (criteria 0-5) (chickweed): 5 (Herbicidal rate of 90% or more (almost completely withered)) | Herbicidal effect on A: late watergrass (grade 0-5) (late watergrass): 3 (Herbicidal rate of 40% or more and less than 70%) | O: lambsquarters, herbicidal effect rating (lambsquarters [9]): 5 (Herbicidal rate of 90% or more (almost completely withered))

CCCC(=O)Oc1c(C)nn(C)c(=O)c1-c1c(-c2ccccc2)sc2ccc(F)cc12 [2-198]
herbicidal effect on H: barnyard grass (barnyard grass [1]): 5 (Herbicidal rate of 90% or more (almost completely withered)) | herbicidal effect on H: barnyard grass (criteria 0-5) (barnyard grass [2]): 3 (Herbicidal rate of 40% or more and less than 70%) | herbicidal effect on J: blackgrass (criteria 0-5) (blackgrass): 4 (Herbicidal rate of 70% or more and less than 90%) | herbicidal effect on N: redroot pigweed (criteria 0-5) (redroot pigweed): 5 (Herbicidal rate of 90% or more (almost completely withered)) | F: southern crabgrass, herbicidal effect rating (southern crabgrass): 5 (Herbicidal rate of 90% or more (almost completely withered)) | herbicidal effect on D: Chinese sprangletop (Chinese sprangletop): 5 (Herbicidal rate of 90% or more (almost completely withered)) | R: persian speedwell, herbicidal effect rating (persian speedwell): 4 (Herbicidal rate of 70% or more and less than 90%) | H: barnyard grass, herbicidal effect rating (barnyard grass [3]): 4 (Herbicidal rate of 70% or more and less than 90%) | herbicidal effect rating, B: Japanese bulrush (Japanese bulrush [4]): 3 (Herbicidal rate of 40% or more and less than 70%) | herbicidal effect on O: lambsquarters (criteria 0-5) (lambsquarters [5]): 5 (Herbicidal rate of 90% or more (almost completely withered)) | Herbicidal effect on B: Japanese bulrush (grade 0-5) (Japanese bulrush [6]): 3 (Herbicidal rate of 40% or more and less than 70%) | L: windgrass, herbicidal effect rating (windgrass [7]): 3 (Herbicidal rate of 40% or more and less than 70%) | herbicidal effect on L: windgrass (criteria 0-5) (windgrass [8]): 4 (Herbicidal rate of 70% or more and less than 90%) | herbicidal effect on P: chickweed (criteria 0-5) (chickweed): 5 (Herbicidal rate of 90% or more (almost completely withered)) | Herbicidal effect on A: late watergrass (grade 0-5) (late watergrass): 5 (Herbicidal rate of 90% or more (almost completely withered)) | O: lambsquarters, herbicidal effect rating (lambsquarters [9]): 4 (Herbicidal rate of 70% or more and less than 90%)

Cc1nn(C)c(=O)c(-c2c(-c3ccccc3F)sc3ccc(F)cc23)c1O [2-199]
herbicidal effect on H: barnyard grass (barnyard grass [1]): 5 (Herbicidal rate of 90% or more (almost completely withered)) | herbicidal effect on H: barnyard grass (criteria 0-5) (barnyard grass [2]): 3 (Herbicidal rate of 40% or more and less than 70%) | herbicidal effect on J: blackgrass (criteria 0-5) (blackgrass): 3 (Herbicidal rate of 40% or more and less than 70%) | herbicidal effect on N: redroot pigweed (criteria 0-5) (redroot pigweed): 5 (Herbicidal rate of 90% or more (almost completely withered)) | F: southern crabgrass, herbicidal effect rating (southern crabgrass): 2 (Herbicidal rate of 20% or more and less than 40%) | herbicidal effect on D: Chinese sprangletop (Chinese sprangletop): 5 (Herbicidal rate of 90% or more (almost completely withered)) | R: persian speedwell, herbicidal effect rating (persian speedwell): 0 (Herbicidal rate of 5% or less (almost no effect)) | H: barnyard grass, herbicidal effect rating (barnyard grass [3]): 4 (Herbicidal rate of 70% or more and less than 90%) | herbicidal effect rating, B: Japanese bulrush (Japanese bulrush [4]): 2 (Herbicidal rate of 20% or more and less than 40%) | herbicidal effect on O: lambsquarters (criteria 0-5) (lambsquarters [5]): 5 (Herbicidal rate of 90% or more (almost completely withered)) | Herbicidal effect on B: Japanese bulrush (grade 0-5) (Japanese bulrush [6]): 3 (Herbicidal rate of 40% or more and less than 70%) | L: windgrass, herbicidal effect rating (windgrass [7]): 0 (Herbicidal rate of 5% or less (almost no effect)) | herbicidal effect on L: windgrass (criteria 0-5) (windgrass [8]): 0 (Herbicidal rate of 5% or less (almost no effect)) | herbicidal effect on P: chickweed (criteria 0-5) (chickweed): 5 (Herbicidal rate of 90% or more (almost completely withered)) | Herbicidal effect on A: late watergrass (grade 0-5) (late watergrass): 1 (Herbicidal rate of 5% or more and less than 20%) | O: lambsquarters, herbicidal effect rating (lambsquarters [9]): 4 (Herbicidal rate of 70% or more and less than 90%)

Cc1nn(C)c(=O)c(-c2c(-c3ccc(Br)cc3)sc3ccc(F)cc23)c1O [2-205]
herbicidal effect on H: barnyard grass (barnyard grass [1]): 5 (Herbicidal rate of 90% or more (almost completely withered)) | herbicidal effect on H: barnyard grass (criteria 0-5) (barnyard grass [2]): 5 (Herbicidal rate of 90% or more (almost completely withered)) | herbicidal effect on J: blackgrass (criteria 0-5) (blackgrass): 4 (Herbicidal rate of 70% or more and less than 90%) | herbicidal effect on N: redroot pigweed (criteria 0-5) (redroot pigweed): 5 (Herbicidal rate of 90% or more (almost completely withered)) | F: southern crabgrass, herbicidal effect rating (southern crabgrass): 5 (Herbicidal rate of 90% or more (almost completely withered)) | herbicidal effect on D: Chinese sprangletop (Chinese sprangletop): 4 (Herbicidal rate of 70% or more and less than 90%) | R: persian speedwell, herbicidal effect rating (persian speedwell): 5 (Herbicidal rate of 90% or more (almost completely withered)) | H: barnyard grass, herbicidal effect rating (barnyard grass [3]): 4 (Herbicidal rate of 70% or more and less than 90%) | herbicidal effect rating, B: Japanese bulrush (Japanese bulrush [4]): 3 (Herbicidal rate of 40% or more and less than 70%) | herbicidal effect on O: lambsquarters (criteria 0-5) (lambsquarters [5]): 5 (Herbicidal rate of 90% or more (almost completely withered)) | Herbicidal effect on B: Japanese bulrush (grade 0-5) (Japanese bulrush [6]): 3 (Herbicidal rate of 40% or more and less than 70%) | L: windgrass, herbicidal effect rating (windgrass [7]): 0 (Herbicidal rate of 5% or less (almost no effect)) | herbicidal effect on L: windgrass (criteria 0-5) (windgrass [8]): 5 (Herbicidal rate of 90% or more (almost completely withered)) | herbicidal effect on P: chickweed (criteria 0-5) (chickweed): 5 (Herbicidal rate of 90% or more (almost completely withered)) | Herbicidal effect on A: late watergrass (grade 0-5) (late watergrass): 4 (Herbicidal rate of 70% or more and less than 90%) | O: lambsquarters, herbicidal effect rating (lambsquarters [9]): 5 (Herbicidal rate of 90% or more (almost completely withered))
